# Assay results taken from ChEMBL document CHEMBL5729177, “GLS1 inhibitors for treating disease” (2022).
# Target: T1, Glutaminase kidney isoform, mitochondrial (Homo sapiens, UniProt O94925)
# T1 sequence (O94925 whole entry): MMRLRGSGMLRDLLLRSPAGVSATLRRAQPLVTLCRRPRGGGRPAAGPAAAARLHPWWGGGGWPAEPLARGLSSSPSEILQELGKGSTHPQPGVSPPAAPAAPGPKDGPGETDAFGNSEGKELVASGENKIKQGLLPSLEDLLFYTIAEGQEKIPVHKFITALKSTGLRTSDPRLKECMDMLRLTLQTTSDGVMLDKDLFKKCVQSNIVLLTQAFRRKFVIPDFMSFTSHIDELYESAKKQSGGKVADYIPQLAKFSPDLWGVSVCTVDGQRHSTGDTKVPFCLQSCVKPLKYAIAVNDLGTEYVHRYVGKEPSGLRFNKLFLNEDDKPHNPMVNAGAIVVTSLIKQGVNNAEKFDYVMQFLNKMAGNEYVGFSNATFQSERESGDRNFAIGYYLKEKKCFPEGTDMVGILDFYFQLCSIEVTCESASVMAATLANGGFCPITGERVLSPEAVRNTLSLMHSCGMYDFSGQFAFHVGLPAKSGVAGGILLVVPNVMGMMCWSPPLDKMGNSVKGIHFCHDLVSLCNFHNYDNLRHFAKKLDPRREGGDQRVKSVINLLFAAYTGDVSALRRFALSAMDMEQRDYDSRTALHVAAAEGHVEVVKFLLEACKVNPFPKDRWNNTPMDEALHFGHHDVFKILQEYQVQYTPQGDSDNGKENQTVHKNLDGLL
# Test: Enzymatic Activity Assay: The inhibition of purified recombinant human GAC by varying concentrations of inhibitors is assessed via a dual-coupled enzymatic assay. The glutamate produced by the glutaminase reaction is used by glutamate oxidase to produce α-ketoglutarate, ammonia, and hydrogen peroxide, with this hydrogen peroxide subsequently being used by horseradish peroxidase to produce resorufin in the presence of Amplex UltraRed. The assay buffer consisted of 50 mM Hepes (pH 7.4), 0.25 mM EDTA and 0.1 mM Triton X-100. GAC was incubated with potassium phosphate (10 minutes at room temperature) prior to incubation with inhibitor (10 minutes at room temperature). The final reaction conditions were as follows: 2 nM GAC, 50 mM potassium phosphate, 100 mU/mL glutamate oxidase (Sigma), 1 mM glutamine (Sigma), 100 mU/mL horseradish peroxidase (Sigma), 75 μM Amplex UltraRed (Life Technologies), and 1% (v/v) DMSO. The production of resorufin was monitored on a Perkin Elmer Envision plate reader (excitation 530 nm, emission 590 nm) either in a kinetics or endpoint mode (at 20 minutes). IC50 values were calculated using a four-parameter logistic curve fit.
compound,measurement,value
O=C(NCc1cc(OC(F)(F)F)ccc1F)c1cn(CCC(F)Cn2cc(C(=O)NCc3ccccn3)nn2)nn1 (stereo unspecified),IC50,< 0.1 µM
